# Test results reported in patent EP4635500A1, “THERAPEUTIC AGENT FOR BACTERIAL INFECTION” (Sumitomo Pharma Co., Ltd., priority 2022, dated 2024).
# Read-outs that look alike come from different tables or passages of the source.
# System: Enterobacterales
# Experiment: MIC, broth microdilution, CDC/FDA Antibiotic Resistance Isolate Bank (Example 7, Tables 8, 11, 12)
# Type: cell-based
compound,measurement,setting,value
"CC(C)(O/N=C(\C(=O)N[C@@H]1C(=O)N2C(C(=O)[O-])=C(C[N+]3(CCNC(=O)c4ccc(O)c(O)c4Cl)CCCC3)CS[C@H]12)c1csc(N)n1)C(=O)O [Cefiderocol, cefiderocol]",MIC,"Escherichia coli, KUB No. 5767, AR Bank # 371, read-out: MIC",0.5 µg/mL
same,MIC,"Escherichia coli, KUB No. 5768, AR Bank # 372, read-out: MIC",1 µg/mL
same,MIC,"Escherichia coli, KUB No. 5769, AR Bank # 373, read-out: MIC",≤ 0.06 µg/mL
same,MIC,"Escherichia coli, KUB No. 5770, AR Bank # 374, read-out: MIC",< 0.06 µg/mL
same,MIC,"Escherichia coli, KUB No. 5774, AR Bank # 378, read-out: MIC",0.12 µg/mL
same,MIC,"Escherichia coli, KUB No. 5779, AR Bank # 433, read-out: MIC",0.5 µg/mL
same,MIC,"Escherichia coli, KUB No. 5780, AR Bank # 434, read-out: MIC",0.5 µg/mL
same,MIC,"Escherichia coli, KUB No. 5781, AR Bank # 435, read-out: MIC",4 µg/mL
same,MIC,"Escherichia, KUB No. 57, AR Bank # 436 (row cut off)",≤0.0 µg/mL
same,MIC,"Klebsiella aerogenes, Enterobacter aerogenes, KUB No. 5559, AR Bank # 62, read-out: MIC",≤ 0.06 µg/mL
same,MIC,"Klebsiella aerogenes, Enterobacter aerogenes, KUB No. 5571, AR Bank # 74, read-out: MIC",≤ 0.06 µg/mL
same,MIC,"Klebsiella aerogenes, Enterobacter aerogenes, KUB No. 5658, AR Bank # 161, read-out: MIC",1 µg/mL
same,MIC,"Klebsiella aerogenes, Enterobacter aerogenes, KUB No. 5777, AR Bank # 431, read-out: MIC",1 µg/mL
same,MIC,"Klebsiella oxytoca, KUB No. 5568, AR Bank # 71, read-out: MIC",≤ 0.06 µg/mL
same,MIC,"Klebsiella oxytoca, KUB No. 5644, AR Bank # 147, read-out: MIC",0.12 µg/mL
same,MIC,"Klebsiella oxytoca, KUB No. 5771, AR Bank # 375, read-out: MIC",0.5 µg/mL
same,MIC,"Klebsiella oxytoca, KUB No. 5776, AR Bank # 380, read-out: MIC",≤ 0.06 µg/mL
same,MIC,"Klebsiella ozaenae, KUB No. 5593, AR Bank # 96, read-out: MIC",≤ 0.06 µg/mL
same,MIC,"Klebsiella pnemnonine, KUB No. 5758, AR Bank # 362, read-out: MIC",0.5 µg/mL
same,MIC,"Klebsiella pneumoniae, KUB No. 5531, AR Bank# 34, read-out: MIC",0.25 µg/mL
same,MIC,"Klebsiella pneumoniae, KUB No. 5536, AR Bank# 39, read-out: MIC",0.12 µg/mL
same,MIC,"Klebsiella pneumoniae, KUB No. 5537, AR Bank# 40, read-out: MIC",0.5 µg/mL
same,MIC,"Klebsiella pneumoniae, KUB No. 5538, AR Bank# 41, read-out: MIC",2 µg/mL
same,MIC,"Klebsiella pneumoniae, KUB No. 5540, AR Bank# 43, read-out: MIC",0.25 µg/mL
same,MIC,"Klebsiella pneumoniae, KUB No. 5541, AR Bank# 44, read-out: MIC",0.5 µg/mL
same,MIC,"Klebsiella pneumoniae, KUB No. 5543, AR Bank# 46, read-out: MIC",0.25 µg/mL
same,MIC,"Klebsiella pneumoniae, KUB No. 5546, AR Bank# 49, read-out: MIC",1 µg/mL
same,MIC,"Klebsiella pneumoniae, KUB No. 5563, AR Bank # 66, read-out: MIC",0.5 µg/mL
same,MIC,"Klebsiella pneumoniae, KUB No. 5565, AR Bank # 68, read-out: MIC",2 µg/mL
same,MIC,"Klebsiella pneumoniae, KUB No. 5572, AR Bank # 75, read-out: MIC",0.25 µg/mL
same,MIC,"Klebsiella pneumoniae, KUB No. 5573, AR Bank # 76, read-out: MIC",≤ 0.06 µg/mL
same,MIC,"Klebsiella pneumoniae, KUB No. 5576, AR Bank # 79, read-out: MIC",0.12 µg/mL
same,MIC,"Klebsiella pneumoniae, KUB No. 5577, AR Bank # 80, read-out: MIC",2 µg/mL
same,MIC,"Klebsiella pneumoniae, KUB No. 5584, AR Bank # 87, read-out: MIC",1 µg/mL
same,MIC,"Klebsiella pneumoniae, KUB No. 5594, AR Bank # 97, read-out: MIC",1 µg/mL
same,MIC,"Klebsiella pneumoniae, KUB No. 5595, AR Bank # 98, read-out: MIC",0.12 µg/mL
same,MIC,"Klebsiella pneumoniae, KUB No. 5603, AR Bank # 106, read-out: MIC",1 µg/mL
same,MIC,"Klebsiella pneumoniae, KUB No. 5604, AR Bank # 107, read-out: MIC",≤ 0.06 µg/mL
same,MIC,"Klebsiella pneumoniae, KUB No. 5606, AR Bank # 109, read-out: MIC",0.5 µg/mL
same,MIC,"Klebsiella pneumoniae, KUB No. 5609, AR Bank # 112, read-out: MIC",2 µg/mL
same,MIC,"Klebsiella pneumoniae, KUB No. 5610, AR Bank # 113, read-out: MIC",0.5 µg/mL
same,MIC,"Klebsiella pneumoniae, KUB No. 5612, AR Bank # 115, read-out: MIC",0.5 µg/mL
same,MIC,"Klebsiella pneumoniae, KUB No. 5614, AR Bank # 117, read-out: MIC",2 µg/mL
same,MIC,"Klebsiella pneumoniae, KUB No. 5617, AR Bank # 120, read-out: MIC",0.25 µg/mL
same,MIC,"Klebsiella pneumoniae, KUB No. 5622, AR Bank # 125, read-out: MIC",1 µg/mL
same,MIC,"Klebsiella pneumoniae, KUB No. 5623, AR Bank # 126, read-out: MIC",≤ 0.06 µg/mL
same,MIC,"Klebsiella pneumoniae, KUB No. 5626, AR Bank # 129, read-out: MIC",1 µg/mL
same,MIC,"Klebsiella pneumoniae, KUB No. 5632, AR Bank # 135, read-out: MIC",1 µg/mL
same,MIC,"Klebsiella pneumoniae, KUB No. 5635, AR Bank # 138, read-out: MIC",1 µg/mL
same,MIC,"Klebsiella pneumoniae, KUB No. 5636, AR Bank # 139, read-out: MIC",0.12 µg/mL
same,MIC,"Klebsiella pneumoniae, KUB No. 5637, AR Bank # 140, read-out: MIC",0.12 µg/mL
same,MIC,"Klebsiella pneumoniae, KUB No. 5638, AR Bank # 141, read-out: MIC",≤ 0.06 µg/mL
